From PMC11206245 (Pharmaceuticals, 2024) come the findings set out here.

Where two headings read alike, the source gives them in different places.

A short description of the series: Study B: 17-AAG pharmacokinetics in subcutaneous interstitial fluid (tissue cages, HPLC). The conditions noted are these: dogs; for AUC(0-t) / Cmax / half-life: both sexes, dog, subcutaneous interstitial fluid, iv, mean ± SD; for half-life: read-out: t ½ (converted). Format: in vivo. How it is done: Study B involved 9 healthy dogs (8 females and 1 male), including the 4 females from Study A after wash-out and upon confirmation of regular laboratory evaluations. […] Tolerability evaluations were performed via clinical examinations and blood sampling for laboratory evaluation after each treatment. For toxicity assessments, 4, 6, and 8 h after the final administration, the animals were euthanized for tissue collection and histopathological evaluation.
In Study B, samples of interstitial fluid were collected from tissue cages implanted subcutaneously in the dogs. These cages were prepared based on a protocol previously described by Stegemann et al.. They were made from non-toxic, siliconized, flexible, non-irritant PVC tubes with dimensions of 3.5 cm long, an internal diameter of 3 mm, and an external diameter of 5 mm. Three autoclaved cages were surgically implanted between the scapula of each animal under sedation (xylazine 2%, Syntec, Tambore, SP, Brazil) and local anesthesia (lidocaine 2% and epinephrine 0.002%, Syntec). Before and after surgical procedures, antibiotics (enrofloxacin–5 mg/Kg, Syntec) and an anti-inflammatory (ketoprofen 1%–1 mL/Kg, CEVA, Paulínia, SP, Brazil) drug were administered. To allow animals to heal, as well as the formation of the granulation tissue around the cages, a recovery time of 10 days after surgery was considered. The subcutaneous interstitial fluid was collected by percutaneous puncture using a 21 G needle and 20 mL syringe.
For the mobile phase, acetonitrile (ACN, J.T.Baker®, Philadelphia, PA, USA) and water with 1% acetic acid (J.T.Baker®)were used. Briefly, aliquots of 200 µL of plasma or 100 µL of subcutaneous interstitial liquid were placed in a 1.5 mL microcentrifuge tube. Subsequently, 600 µL and 300 µL of ACN were added to all plasma and subcutaneous interstitial liquid samples, respectively. The mixture was vortexed for 30 s, followed by centrifugation at 3400× g for 10 min. Next, 500 µL of the plasma supernatant and 250 µL of the subcutaneous interstitial fluid were pipetted into a new vial. The method was validated in accordance with the International Council for Harmonization (ICH) technical requirements for the evaluation of medicinal products. […] No matrix interferences were observed. Two calibrated plasma curves of 17-AAG were validated with different injection volumes. […] Data acquisition and processing were performed using LabSolutions software (Version 5.3).
Cmax, half-life (t ½), distribution volume, and clearance were also determined. Data were analyzed in Excel and WinNonlin using a mono-compartmental model.

As for `C=CCNC1=C2C[C@@H](C)C[C@H](OC)[C@H](O)[C@@H](C)/C=C(\C)[C@H](OC(N)=O)[C@@H](OC)/C=C\C=C(/C)C(=O)NC(=CC1=O)C2=O` [17-AAG, 17-(allylamino)-17-demethoxygeldanamycin], the “Concentration in subcutaneous interstitial fluid (tissue cages)” value (Study B, 150 mg/m^2 IV, at all times evaluated / at 48 h intervals) is reported as around 100 ng/mL. Further, the AUC(0-t) (150 mg/m2, AUC 0–8 h, Study B, 1st administration of 150 mg/m^2 IV) was determined as 2660 ± 437 ng·h/mL; the AUC(0-t) (150 mg/m2, AUC 0–8 h, Study B, 2nd administration of 150 mg/m^2 IV) came to 2910 ± 686 ng·h/mL; the AUC(0-t) (150 mg/m2, AUC 0–8 h, Study B, 3rd administration of 150 mg/m^2 IV) was found to be 2730 ± 1440 ng·h/mL; the AUC(0-t) (150 mg/m2, Study B, 1st administration of 150 mg/m^2 IV, read-out: AUC 0–4 h) was determined as 1820 ± 430 ng·h/mL; the AUC(0-t) (150 mg/m2, Study B, 1st administration of 150 mg/m^2 IV, read-out: AUC 0–6 h) came out at 2300 ± 409 ng·h/mL; the AUC(0-t) (150 mg/m2, Study B, 1st administration of 150 mg/m^2 IV, read-out: AUC 0–24 h) came to 4760 ± 333 ng·h/mL. For the same compound, the AUC(0-t) runs as follows: (150 mg/m2, Study B, 1st administration of 150 mg/m^2 IV, read-out: AUC 0–47.5 h) 7380 ± 1360 ng·h/mL; (150 mg/m2, Study B, 2nd administration of 150 mg/m^2 IV, read-out: AUC 0–4 h) 1940 ± 618 ng·h/mL; (150 mg/m2, Study B, 2nd administration of 150 mg/m^2 IV, read-out: AUC 0–6 h) 2550 ± 638 ng·h/mL; (150 mg/m2, Study B, 2nd administration of 150 mg/m^2 IV, read-out: AUC 0–24 h) 4070 ± 700 ng·h/mL; (150 mg/m2, Study B, 2nd administration of 150 mg/m^2 IV, read-out: AUC 0–47.5 h) 7050 ± 2190 ng·h/mL; (150 mg/m2, Study B, 3rd administration of 150 mg/m^2 IV, read-out: AUC 0–4 h) 895 ± 408 ng·h/mL. The AUC(0-t) is, setting by setting: (150 mg/m2, Study B, 3rd administration of 150 mg/m^2 IV, read-out: AUC 0–6 h) 2040 ± 1100 ng·h/mL; (150 mg/m2, Study B, 3rd administration of 150 mg/m^2 IV, read-out: AUC 0–24 h) 3500 ± 2420 ng·h/mL. In addition, the highest level (150 mg/m2, Study B, 1st administration of 150 mg/m^2 IV) (Cmax) was 704 ± 332 ng/mL; the concentration (150 mg/m2, Study B, 2nd administration of 150 mg/m^2 IV) peaked (Cmax) at 736 ± 294 ng/mL; the peak level (150 mg/m2, Study B, 3rd administration of 150 mg/m^2 IV) (Cmax) was 726 ± 401 ng/mL. For the same compound, the half-life by setting is: (150 mg/m2, Study B, 1st of three IV administrations of 150 mg/m^2 at 48 h intervals) 38 ± 16 h; (150 mg/m2, Study B, 2nd of three IV administrations of 150 mg/m^2 at 48 h intervals) 28 ± 9 h.

In general, Cmax refers to the highest concentration seen after dosing.
